{"source": "ChEMBL document CHEMBL1201862", "about": "“PubChem BioAssay data set” (2004)", "key": {"Cytochrome P450 2C19": {"target": "Cytochrome P450 2C19 (Homo sapiens, UniProt P33261)", "sequence (P33261 whole entry)": "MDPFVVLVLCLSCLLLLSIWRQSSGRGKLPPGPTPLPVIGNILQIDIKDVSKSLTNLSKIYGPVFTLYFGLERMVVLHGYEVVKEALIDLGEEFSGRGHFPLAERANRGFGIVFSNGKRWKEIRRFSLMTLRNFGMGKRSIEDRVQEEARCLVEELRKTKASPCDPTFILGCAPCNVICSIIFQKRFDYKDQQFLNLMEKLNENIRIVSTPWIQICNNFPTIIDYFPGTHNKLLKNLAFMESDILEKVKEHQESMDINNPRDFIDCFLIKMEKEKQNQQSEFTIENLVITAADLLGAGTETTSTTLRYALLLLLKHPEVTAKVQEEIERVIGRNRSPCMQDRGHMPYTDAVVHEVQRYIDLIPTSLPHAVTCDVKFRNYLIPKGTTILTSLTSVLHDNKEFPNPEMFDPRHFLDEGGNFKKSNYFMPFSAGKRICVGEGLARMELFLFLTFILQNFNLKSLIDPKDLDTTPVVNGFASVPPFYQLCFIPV", "experiment": "qHTS Assay for Inhibitors and Substrates of Cytochrome P450 2C19. [Related pubchem assays: 410 ]", "assay_type": "ADME", "conditions": "read-out: Potency"}, "Cytochrome P450 2D6": {"target": "Cytochrome P450 2D6 (Homo sapiens, UniProt P10635)", "sequence (P10635 whole entry)": "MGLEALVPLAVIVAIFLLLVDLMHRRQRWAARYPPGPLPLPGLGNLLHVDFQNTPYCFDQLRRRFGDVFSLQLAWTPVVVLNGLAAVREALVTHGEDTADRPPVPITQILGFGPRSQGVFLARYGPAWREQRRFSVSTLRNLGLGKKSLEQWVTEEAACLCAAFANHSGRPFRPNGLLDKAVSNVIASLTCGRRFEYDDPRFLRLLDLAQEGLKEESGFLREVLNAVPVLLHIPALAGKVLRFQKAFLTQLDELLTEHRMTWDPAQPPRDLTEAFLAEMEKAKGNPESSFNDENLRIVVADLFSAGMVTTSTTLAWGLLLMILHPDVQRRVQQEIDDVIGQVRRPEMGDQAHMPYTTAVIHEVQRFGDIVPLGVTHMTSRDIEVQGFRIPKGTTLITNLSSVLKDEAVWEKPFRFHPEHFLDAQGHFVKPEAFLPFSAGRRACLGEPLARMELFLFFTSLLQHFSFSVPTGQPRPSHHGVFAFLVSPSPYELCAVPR", "experiment": "qHTS Assay for Inhibitors and Substrates of Cytochrome P450 2D6. [Related pubchem assays: 410 ]", "assay_type": "ADME", "conditions": "read-out: Potency"}, "Cytochrome P450 2C9": {"target": "Cytochrome P450 2C9 (Homo sapiens, UniProt P11712)", "sequence (P11712 whole entry)": "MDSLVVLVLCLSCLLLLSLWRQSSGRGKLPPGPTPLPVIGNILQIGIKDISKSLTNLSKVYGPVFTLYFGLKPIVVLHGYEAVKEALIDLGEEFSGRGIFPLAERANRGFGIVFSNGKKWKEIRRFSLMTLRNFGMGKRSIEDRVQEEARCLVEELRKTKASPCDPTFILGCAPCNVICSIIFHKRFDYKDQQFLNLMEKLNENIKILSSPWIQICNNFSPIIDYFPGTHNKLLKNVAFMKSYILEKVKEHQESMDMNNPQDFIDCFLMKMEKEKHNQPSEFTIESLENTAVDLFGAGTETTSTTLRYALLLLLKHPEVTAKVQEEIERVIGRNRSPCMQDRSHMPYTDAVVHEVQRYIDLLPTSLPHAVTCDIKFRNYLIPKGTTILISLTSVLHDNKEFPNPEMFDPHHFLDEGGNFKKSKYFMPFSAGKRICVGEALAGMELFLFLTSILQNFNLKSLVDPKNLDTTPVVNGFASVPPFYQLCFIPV", "conditions": "Potency"}, "[1]": {"experiment": "Luminescence Cell-Based Dose Confirmation HTS to Identify Inhibitors of Polyadenylation.", "assay_type": "functional"}, "[2]": {"experiment": "growth inhibition of yeast DHODH-expressing 3D7 parasites – SYBR Green, dry powder samples, dose response (AID 1159570);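 note: parasite growth measured after 72 hours of compound exposure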", "assay_type": "functional, cell-based"}, "[3]": {"experiment": "Dd2 parasite growth inhibition in erythrocytes – SYBR Green, dry powder samples, set 9, dose response (AID 1159568)", "assay_type": "functional, cell-based"}, "[4]": {"experiment": "P. falciparum Dd2 growth inhibitors, dose response, SYBR Green, cherry-picked samples (AID 1159567)", "assay_type": "functional, cell-based"}, "[5]": {"experiment": "Dd2 malaria parasite growth inhibition potency – SYBR Green, dry powder samples, dose response (AID 1159566);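 note: potency for growth inhibition with lower SYBR green DNA signal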", "assay_type": "functional, cell-based"}, "[6]": {"experiment": "Plasmodium falciparum Dd2 Sybr green parasite growth Measured in Cell-Based and Microorganism Combination System Using Plate Reader - 2153-01_Inhibitor_Dose_DryPowder_Activity_Set3.", "assay_type": "functional"}, "[7]": {"experiment": "growth inhibition of PfATP4-mutant resistant parasites – NITD609-resistant line, SYBR Green, dry powder, dose response (AID 1159571);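 note: parasites synchronized at ring stage by sorbitol before testing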", "assay_type": "functional, cell-based"}, "[8]": {"experiment": "toxicity to human HepG2 hepatoma cells – cell-based, plate reader, dry powder samples, cytotoxicity control, dose response (AID 1159569);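 note: inhibitor potency with signal falling toward the positive control level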", "assay_type": "functional"}, "[9]": {"experiment": "HEK-293T viability loss after treatment – luminescence, T-cell screen hits, cytotoxicity control for TCR NF-kB inhibitor project, dose response (AID 489026);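 note: cells exposed to compound about 14 hours before the viability readout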", "assay_type": "functional, cell-based"}, "[10]": {"experiment": "CellTiter-Glo luminescence survival assay, SW480 colon tumor line, concentration-response curve, half-maximal inhibitory concentration (AID 1117338)", "assay_type": "functional"}, "[11]": {"experiment": "RKO cell viability reduction, dose response, CellTiter-Glo luminescence (AID 1117322)", "assay_type": "functional"}, "[12]": {"experiment": "cytotoxicity toward HCT116 cells – cell-based, CellTiter-Glo luminescence, IC50, dose response (AID 1117332)", "assay_type": "functional", "conditions": "HCT-116"}, "[13]": {"experiment": "SNU-C1 cell viability reduction, dose response, CellTiter-Glo luminescence (AID 1117323)", "assay_type": "functional, cell-based"}, "[14]": {"experiment": "cytotoxicity toward Colo320 cells – cell-based, CellTiter-Glo luminescence, IC50, dose response (AID 1117334)", "assay_type": "functional", "conditions": "COLO 320"}, "[15]": {"experiment": "cytotoxicity toward HT-29 cells – cell-based, CellTiter-Glo luminescence, IC50, dose response (AID 1117330)", "assay_type": "functional"}, "[16]": {"experiment": "Reduced DLD-1 viability, concentration-response, CellTiter-Glo luminescence (AID 1117352)", "assay_type": "functional"}}, "note": "Calls of active or inactive are those of the source."}
{"smiles": "COC(=O)NC(c1ccco1)C(C(C)=O)C(=O)OC", "note": "(centres undefined)", "values": [{"measurement": "AC50", "setting": "Cytochrome P450 2C19", "result": "6.31 µM (inconclusive)"}, {"measurement": "AC50", "setting": "Cytochrome P450 2D6", "result": "3.16 µM (inconclusive)"}, {"measurement": "AC50", "setting": "Cytochrome P450 2C9", "result": "1 µM (inconclusive)"}]}
{"smiles": "CCCCCCCCCCCC(=O)N/N=C/c1ccco1", "values": [{"measurement": "EC50", "setting": "[1]", "result": "> 120 µM (not active)"}]}
{"smiles": "CCCNC(=O)Nc1ccc2c(c1)OC[C@@H](C)N(Cc1ccccc1)C[C@@H](C)[C@H](OC)CN(C)C2=O", "values": [{"measurement": "AC50", "setting": "[2]", "result": "3.25 µM (active)"}, {"measurement": "AC50", "setting": "[3]", "result": "0.307 µM (active)"}, {"measurement": "AC50", "setting": "[4]", "result": "1.43 µM (active)"}, {"measurement": "AC50", "setting": "[5]", "result": "0.154 µM (active)"}, {"measurement": "AC50", "setting": "[6]", "result": "0.826 µM (active)"}, {"measurement": "AC50", "setting": "[7]", "result": "0.828 µM (active)"}]}
{"smiles": "CCCNC(=O)N1[C@H](C#N)[C@H](c2ccc(-c3cccnc3)cc2)[C@H]1CO", "values": [{"measurement": "AC50", "setting": "[2]", "result": "> 39 µM (inactive)"}, {"measurement": "AC50", "setting": "[8]", "result": "> 100 µM (inactive)"}, {"measurement": "AC50", "setting": "[4]", "result": "1.49 µM (active)"}, {"measurement": "AC50", "setting": "[5]", "result": "0.822 µM (active)"}, {"measurement": "AC50", "setting": "[6]", "result": "0.927 µM (active)"}, {"measurement": "AC50", "setting": "[7]", "result": "1.16 µM (active)"}]}
{"smiles": "Nc1ncn([C@@H]2O[C@H](CO)[C@@H](O)[C@H]2O)c(=O)n1", "note": "[AZACITIDINE]", "values": [{"measurement": "IC50", "setting": "[9]", "result": "> 80 µM (inactive)"}, {"measurement": "IC50", "setting": "[10]", "result": "> 6.67 µM (inactive)"}, {"measurement": "IC50", "setting": "[11]", "result": "7.4 µM (inactive)"}, {"measurement": "IC50", "setting": "[12]", "result": "3.04 µM (active)"}, {"measurement": "IC50", "setting": "[13]", "result": "1.8 µM (active)"}, {"measurement": "IC50", "setting": "[14]", "result": "12.3 µM (inactive)"}, {"measurement": "IC50", "setting": "[15]", "result": "12.5 µM (inactive)"}, {"measurement": "IC50", "setting": "[16]", "result": "2.55 µM (active)"}]}
